The assay has as its target StAhpC (Salmonella typhimurium AhpC; alkyl hydroperoxide reductase C component) (Salmonella enterica, UniProt P0A251). Nature of the assay: stopped-flow Trp fluorescence, double-exponential fit. The following applies: reduced enzyme, no reductase; pH 7.0, 25 °C; peroxidatic Cys46. It is filed as biochemical.

Sequence of StAhpC (Salmonella typhimurium AhpC; alkyl hydroperoxide reductase C component) (P0A251 2-187): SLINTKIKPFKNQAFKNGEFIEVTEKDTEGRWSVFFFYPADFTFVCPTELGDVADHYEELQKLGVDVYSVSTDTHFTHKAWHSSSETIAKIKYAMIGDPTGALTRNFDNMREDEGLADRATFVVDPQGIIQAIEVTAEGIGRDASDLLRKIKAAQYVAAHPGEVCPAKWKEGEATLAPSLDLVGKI

Consider `CC(C)(OO)c1ccccc1` [cumene hydroperoxide], for which the “slope of kobs vs [ROOH], first phase” value was “black those for cumene hydroperoxide”.

For `CCOO` [ethyl hydroperoxide], the “slope of kobs vs [ROOH], first phase” value is “red those for ethyl hydroperoxide”.
